Measurements as given in PubChem BioAssay (NCI).
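Step 1: Grow cells in 96-well plates. Step 2: Expose to compound for 48 hours at 5 concentrations. Step 3: Interpolate endpoints linearly; if unreached, use highest concentration. TGI denotes the concentration required for complete inhibition of growth.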

Legend:
Assay in all cases: NCI anticancer screen, dose series, 48 h
NCI-H522 lung = tested on: NCI-H522 lung
RXF 393 renal = tested on: RXF 393 renal
SN12C renal = tested on: SN12C renal
MDA-N = tested on: MDA-N
MOLT-4 leukemia = tested on: MOLT-4 leukemia
UO-31 renal = tested on: UO-31 renal
HCT-15 colon = tested on: HCT-15 colon
NCI-H460 lung = tested on: NCI-H460 lung
BT-549 breast = tested on: BT-549 breast
SR leukemia = tested on: SR leukemia
SNB-75 CNS = tested on: SNB-75 CNS
CAKI-1 renal = tested on: CAKI-1 renal
HOP-62 NSCLC = tested on: HOP-62 NSCLC
NCI-H23 lung = tested on: NCI-H23 lung
OVCAR-4 ovarian = tested on: OVCAR-4 ovarian
HCC-2998 colon = tested on: HCC-2998 colon
OVCAR-3 ovarian = tested on: OVCAR-3 ovarian
SK-MEL-5 melanoma = tested on: SK-MEL-5 melanoma
CCRF-CEM leukemia = tested on: CCRF-CEM leukemia
ACHN renal = tested on: ACHN renal
A549 NSCLC = tested on: A549 NSCLC
DU-145 prostate = tested on: DU-145 prostate
SK-MEL-28 melanoma = tested on: SK-MEL-28 melanoma
SW-620 colon = tested on: SW-620 colon
HT29 colon = tested on: HT29 colon
M14 melanoma = tested on: M14 melanoma
MDA-MB-435 = tested on: MDA-MB-435
MCF7 breast = tested on: MCF7 breast
COLO 205 colon = tested on: COLO 205 colon
HCT-116 colon = tested on: HCT-116 colon
SK-OV-3 ovarian = tested on: SK-OV-3 ovarian
SNB-19 CNS = tested on: SNB-19 CNS
PC-3 prostate = tested on: PC-3 prostate
NCI-H226 lung = tested on: NCI-H226 lung
UACC-257 melanoma = tested on: UACC-257 melanoma
RPMI-8226 leukemia = tested on: RPMI-8226 leukemia
EKVX NSCLC = tested on: EKVX NSCLC
SF-268 CNS = tested on: SF-268 CNS
K-562 leukemia = tested on: K-562 leukemia
KM12 colon = tested on: KM12 colon
HOP-92 NSCLC = tested on: HOP-92 NSCLC
NCI/ADR-RES ovarian = tested on: NCI/ADR-RES ovarian
U251 CNS = tested on: U251 CNS
UACC-62 melanoma = tested on: UACC-62 melanoma
MALME-3M melanoma = tested on: MALME-3M melanoma
SF-295 CNS = tested on: SF-295 CNS
OVCAR-8 ovarian = tested on: OVCAR-8 ovarian
IGROV1 ovarian = tested on: IGROV1 ovarian
MDA-MB-231 breast = tested on: MDA-MB-231 breast
786-0 renal = tested on: 786-0 renal
SK-MEL-2 melanoma = tested on: SK-MEL-2 melanoma
LOX IMVI melanoma = tested on: LOX IMVI melanoma
OVCAR-5 ovarian = tested on: OVCAR-5 ovarian
TK-10 renal = tested on: TK-10 renal
SF-539 CNS = tested on: SF-539 CNS
HL-60(TB) leukemia = tested on: HL-60(TB) leukemia
HS 578T breast = tested on: HS 578T breast

Work on `COC(=O)[C@@]12CCCC(=O)[C@@H]1[C@H]1CCC[C@H]12` yielded a TGI (NCI-H522 lung) greater than 100 µM, a TGI (RXF 393 renal) greater than 100 µM and a TGI (SN12C renal) greater than 100 µM. The TGI (MDA-N) was greater than 100 µM, the TGI (MOLT-4 leukemia) was greater than 100 µM and the TGI (UO-31 renal) was greater than 100 µM. For the same compound, the TGI (HCT-15 colon) was greater than 100 µM, the TGI (NCI-H460 lung) was greater than 100 µM and the TGI (BT-549 breast) was greater than 100 µM. The TGI (SR leukemia) was greater than 100 µM, the TGI (SNB-75 CNS) was greater than 100 µM and the TGI (CAKI-1 renal) was greater than 100 µM. It also gave a TGI (HOP-62 NSCLC) greater than 100 µM, a TGI (NCI-H23 lung) greater than 100 µM and a TGI (OVCAR-4 ovarian) greater than 100 µM. For the same compound, the TGI (HCC-2998 colon) was greater than 100 µM, the TGI (OVCAR-3 ovarian) was greater than 100 µM and the TGI (SK-MEL-5 melanoma) was greater than 100 µM. It also gave a TGI (CCRF-CEM leukemia) greater than 100 µM, a TGI (ACHN renal) greater than 100 µM and a TGI (A549 NSCLC) greater than 100 µM. It also gave a TGI (DU-145 prostate) greater than 100 µM, a TGI (SK-MEL-28 melanoma) greater than 100 µM and a TGI (SW-620 colon) greater than 100 µM. It also gave a TGI (HT29 colon) greater than 100 µM, a TGI (M14 melanoma) greater than 100 µM and a TGI (MDA-MB-435) greater than 100 µM. For the same compound, the TGI (MCF7 breast) was greater than 100 µM, the TGI (COLO 205 colon) was greater than 100 µM and the TGI (HCT-116 colon) was greater than 100 µM. The TGI (SK-OV-3 ovarian) was greater than 100 µM, the TGI (SNB-19 CNS) was greater than 100 µM and the TGI (PC-3 prostate) was greater than 100 µM. For the same compound, the TGI (NCI-H226 lung) was greater than 100 µM, the TGI (UACC-257 melanoma) was greater than 100 µM and the TGI (RPMI-8226 leukemia) was greater than 100 µM. The TGI (EKVX NSCLC) was greater than 100 µM, the TGI (SF-268 CNS) was greater than 100 µM and the TGI (K-562 leukemia) was greater than 100 µM. For the same compound, the TGI (KM12 colon) was greater than 100 µM, the TGI (HOP-92 NSCLC) was greater than 100 µM and the TGI (NCI/ADR-RES ovarian) was greater than 100 µM. For the same compound, the TGI (U251 CNS) was greater than 100 µM, the TGI (UACC-62 melanoma) was greater than 100 µM and the TGI (MALME-3M melanoma) was greater than 100 µM. It also gave a TGI (SF-295 CNS) greater than 100 µM, a TGI (OVCAR-8 ovarian) greater than 100 µM and a TGI (IGROV1 ovarian) greater than 100 µM. The TGI (MDA-MB-231 breast) was greater than 100 µM, the TGI (786-0 renal) was greater than 100 µM and the TGI (SK-MEL-2 melanoma) was greater than 100 µM. The TGI (LOX IMVI melanoma) was greater than 100 µM, the TGI (OVCAR-5 ovarian) was greater than 100 µM and the TGI (TK-10 renal) was greater than 100 µM. For the same compound, the TGI (SF-539 CNS) was greater than 100 µM.

Work on `CCc1nnc(CC)n1-n1c(Cc2ccccc2)n[nH]c1=O` yielded a TGI (NCI-H522 lung) greater than 100 µM, a TGI (RXF 393 renal) greater than 100 µM and a TGI (SN12C renal) greater than 100 µM. It also gave a TGI (MDA-N) greater than 100 µM, a TGI (MOLT-4 leukemia) greater than 100 µM and a TGI (UO-31 renal) greater than 100 µM. It also gave a TGI (HCT-15 colon) greater than 100 µM, a TGI (BT-549 breast) greater than 100 µM and a TGI (SR leukemia) greater than 100 µM. It also gave a TGI (SNB-75 CNS) greater than 100 µM, a TGI (HOP-62 NSCLC) greater than 100 µM and a TGI (NCI-H23 lung) greater than 100 µM. For the same compound, the TGI (OVCAR-4 ovarian) was greater than 100 µM, the TGI (HCC-2998 colon) was greater than 100 µM and the TGI (OVCAR-3 ovarian) was greater than 100 µM. The TGI (SK-MEL-5 melanoma) was greater than 100 µM, the TGI (CCRF-CEM leukemia) was greater than 100 µM and the TGI (ACHN renal) was greater than 100 µM. It also gave a TGI (A549 NSCLC) greater than 100 µM, a TGI (DU-145 prostate) greater than 100 µM and a TGI (SK-MEL-28 melanoma) greater than 100 µM. For the same compound, the TGI (SW-620 colon) was greater than 100 µM, the TGI (HT29 colon) was greater than 100 µM and the TGI (M14 melanoma) was greater than 100 µM. For the same compound, the TGI (MDA-MB-435) was greater than 100 µM, the TGI (MCF7 breast) was greater than 100 µM and the TGI (COLO 205 colon) was greater than 100 µM. It also gave a TGI (HCT-116 colon) greater than 100 µM, a TGI (SK-OV-3 ovarian) greater than 100 µM and a TGI (SNB-19 CNS) greater than 100 µM. For the same compound, the TGI (PC-3 prostate) was greater than 100 µM, the TGI (UACC-257 melanoma) was greater than 100 µM and the TGI (RPMI-8226 leukemia) was greater than 100 µM. It also gave a TGI (EKVX NSCLC) greater than 100 µM, a TGI (SF-268 CNS) greater than 100 µM and a TGI (K-562 leukemia) greater than 100 µM. It also gave a TGI (KM12 colon) greater than 100 µM, a TGI (HOP-92 NSCLC) greater than 100 µM and a TGI (NCI/ADR-RES ovarian) greater than 100 µM. It also gave a TGI (U251 CNS) greater than 100 µM, a TGI (UACC-62 melanoma) greater than 100 µM and a TGI (SF-295 CNS) greater than 100 µM. It also gave a TGI (OVCAR-8 ovarian) greater than 100 µM, a TGI (IGROV1 ovarian) greater than 100 µM and a TGI (MDA-MB-231 breast) greater than 100 µM. For the same compound, the TGI (786-0 renal) was greater than 100 µM, the TGI (SK-MEL-2 melanoma) was greater than 100 µM and the TGI (LOX IMVI melanoma) was greater than 100 µM. The TGI (OVCAR-5 ovarian) was greater than 100 µM, the TGI (TK-10 renal) was greater than 100 µM and the TGI (SF-539 CNS) was greater than 100 µM.

Compound `COc1ccc(N=Nc2c(O)ccc3ccccc23)cc1` has a TGI (NCI-H522 lung) of 60.9 µM, a TGI (RXF 393 renal) greater than 100 µM and a TGI (SN12C renal) greater than 100 µM. The TGI (MDA-N) was greater than 100 µM, the TGI (MOLT-4 leukemia) was greater than 100 µM and the TGI (HL-60(TB) leukemia) was greater than 100 µM. The TGI (UO-31 renal) was greater than 100 µM, the TGI (HCT-15 colon) was greater than 100 µM and the TGI (BT-549 breast) was 56.1 µM. It also gave a TGI (SR leukemia) of 41.7 µM, a TGI (SNB-75 CNS) of 37.7 µM and a TGI (CAKI-1 renal) greater than 100 µM. The TGI (HOP-62 NSCLC) was 26.7 µM, the TGI (NCI-H23 lung) was 85.2 µM and the TGI (OVCAR-4 ovarian) was 32.3 µM. The TGI (OVCAR-3 ovarian) was greater than 100 µM, the TGI (CCRF-CEM leukemia) was greater than 100 µM and the TGI (ACHN renal) was 57.7 µM. It also gave a TGI (A549 NSCLC) of 39.5 µM, a TGI (SK-MEL-28 melanoma) greater than 100 µM and a TGI (SW-620 colon) greater than 100 µM. For the same compound, the TGI (HT29 colon) was 38 µM, the TGI (M14 melanoma) was greater than 100 µM and the TGI (HS 578T breast) was 23.2 µM. For the same compound, the TGI (MDA-MB-435) was greater than 100 µM, the TGI (COLO 205 colon) was greater than 100 µM and the TGI (HCT-116 colon) was greater than 100 µM. It also gave a TGI (SK-OV-3 ovarian) of 28.1 µM, a TGI (PC-3 prostate) greater than 100 µM and a TGI (NCI-H226 lung) of 47.6 µM. For the same compound, the TGI (UACC-257 melanoma) was greater than 100 µM, the TGI (EKVX NSCLC) was 34.8 µM and the TGI (SF-268 CNS) was 37.7 µM. It also gave a TGI (KM12 colon) of 24.9 µM, a TGI (HOP-92 NSCLC) of 47.7 µM and a TGI (NCI/ADR-RES ovarian) greater than 100 µM. The TGI (U251 CNS) was 30.6 µM, the TGI (UACC-62 melanoma) was 36.3 µM and the TGI (MALME-3M melanoma) was 32.9 µM. For the same compound, the TGI (SF-295 CNS) was 30.1 µM, the TGI (OVCAR-8 ovarian) was 29.1 µM and the TGI (IGROV1 ovarian) was 24.2 µM. The TGI (MDA-MB-231 breast) was 96.5 µM, the TGI (786-0 renal) was greater than 100 µM and the TGI (SK-MEL-2 melanoma) was greater than 100 µM. The TGI (LOX IMVI melanoma) was greater than 100 µM, the TGI (OVCAR-5 ovarian) was 60.6 µM and the TGI (TK-10 renal) was 34 µM.
